Assay results published in ChEMBL document CHEMBL5725356, “Anti-fibrotic pyridinones” (2017).

Experiment: ET-1 Assay: Fibroblasts (primary human lung and dermal, HFL-1, 3T3 etc) are seeded in 96-well plates at ~15000 cells/well and serum starved for 0-48 hours. After media exchange, compounds serially diluted in DMSO are added to the cells. After a brief incubation of ~30 min, stimulants (TGFb, serum, LPA etc) are added followed by further incubation for 16-48 hours. Media is then harvested and stored frozen in plate format for later endothelin-1 (ET-1) determination by ELISA. Toxicity measurements are made using the ATPlite kit (Perkin-Elmer). ET-1 is quantified using an ELISA kit (R&D Systems). The amount of ET-1 produced in the assay wells are back-calculated using the ELISA standard. The ability of a compound to inhibit ET-1 production is typically analyzed by fitting dose-response curves to a 4-parameter logistic function to obtain an EC50 value.
Conditions: HFL1
For `CCn1nnc2c(-c3ccc(F)cc3)cn(-c3ccc(OC(F)(F)F)cc3)c(=O)c21`, the EC50 was less than 50 µM. `CCOc1ccc(-n2cc(-c3cnn(C)c3)c3c(c2=O)CCCC3)c(C)c1` gave an EC50 of less than 50 µM. `O=c1c2nccnc2ccn1-c1ccc(OC(F)(F)F)cc1` gave an EC50 of less than 50 µM. With `Cc1cc(=O)n(-c2ccccc2)cc1C` the EC50 was greater than 200 µM. `Cc1nc2c(-c3cnn(Cc4ccccc4)c3)cn(-c3ccc(OC(F)(F)F)cc3)c(=O)c2s1` showed an EC50 of less than 50 µM. With `O=c1c2nccnc2c(-c2ccc(F)cc2)cn1-c1ccc(OC(F)(F)F)cc1` the EC50 was less than 50 µM. Compound `O=c1ccc(-c2ccccc2)cn1-c1ccncc1` has an EC50 greater than 200 µM. With `O=c1ccc(C2CCCC2)cn1-c1ccccc1` the EC50 was “in the range around 125 µM”. With `CC(C)n1cc(-c2ccc(=O)n(-c3ccccc3)c2)cn1` the EC50 was greater than 200 µM. Work on `Cc1cc(=O)n(-c2ccc(OC(F)(F)F)cc2)cc1-c1cccc2ncsc12` yielded an EC50 of less than 50 µM. `Cc1cc(=O)n(-c2ccc(OC(F)(F)F)cc2)cc1-c1cccc2c1N(C)C(=O)CO2` showed an EC50 greater than 200 µM. Compound `Cc1nc2c(-c3cnn(C)c3)cn(-c3ccc(OC(F)(F)F)cc3)c(=O)c2s1` has an EC50 of less than 50 µM. Compound `Cc1cc(=O)n(-c2ccc(OC(F)(F)F)cc2)cc1-c1ccc2ccn(C)c2c1` has an EC50 of less than 50 µM. `COCCOCCOCCOc1ccc(-n2cc(C)ccc2=O)cc1` gave an EC50 greater than 200 µM. `COc1ccc(-n2cc(-c3cccc(Cl)c3)ccc2=O)cc1` gave an EC50 of less than 50 µM. `COCCOc1ccc(-n2cc(-c3cn[nH]c3)c(C)cc2=O)cc1` showed an EC50 greater than 200 µM. In the case of `Cc1cc(=O)n(-c2ccc(OC(F)(F)F)cc2)cc1-c1ccc2c(c1)OCCO2`, the EC50 is reported as “in the range around 125 µM”. For `COCCOc1ccc(-n2cc(-c3cnn(C)c3)c(C)cc2=O)cc1`, the EC50 was greater than 200 µM. In the case of `Cc1cc(=O)n(-c2ccc(OC(F)(F)F)cc2)cc1-c1ccnnc1`, the EC50 is reported as “in the range around 125 µM”.
